pIC50: −log10 of the molar value. Read-outs that look alike come from different tables or passages of the source.
Experiments:
[1] = biological target: T1, CDK1/Cyclin B (Homo sapiens, UniProt P06493); assay: Enzymatic assay for CDK1 (FRET based LANCE Ultra kinase assay); type: biochemical
T1 construct: purchased Invitrogen PR4768C
In short: (§1)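 Each CDK complex ([…]) phosphorylated 68 nM ULight-MBP peptide with ATP at Km for 60 min at 23° C., against 8 compound doses (4-fold dilutions). EDTA/Eu-anti-phospho-MBP detection, 60 min, then TR-FRET emission at 615 and 665 nm.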

[2] = biological target: T2, CDK2/Cyclin A (Homo sapiens, UniProt P24941); assay: Enzymatic assay for CDK2 (FRET based LANCE Ultra kinase assay); type: biochemical
T2 construct: purchased Invitrogen PV6290
In short: as §1

[3] = biological target: T3, CDK5/p25 (Homo sapiens, UniProt Q00535); assay: Enzymatic assay for CDK5 (FRET based LANCE Ultra kinase assay); type: biochemical
T3 construct: purchased Invitrogen PR8543B
In short: as §1

[4] = biological target: T4, CDK7/Cyclin H/MNAT1 (Homo sapiens, UniProt P50613); assay: Enzymatic assay for CDK7 (FRET based LANCE Ultra kinase assay); type: biochemical
T4 construct: purchased Invitrogen PR6749B
In short: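 Inhibition was measured at Km ATP by time-resolved FRET between a Eu anti-phospho antibody and a phosphorylated ULight peptide. The enzyme was the purified CDK7/cyclin complex, and data were curve-fitted.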

[5] = tested on: HCT116; assay: Cellular HCT116 viability assay (CellTiter-Glo, 72 hours); type: cell-based; settings: Homo sapiens, HCT-116
In short: (§2)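 Mycoplasma-tested cells, seeded at densities chosen for each line, received compound or DMSO vehicle (under 0.1% final) for 72 hours. Duplicate cultures were then read for viability by CellTiter-Glo luminescence.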

[6] = tested on: H460; assay: Cellular H460 viability assay (CellTiter-Glo, 72 hours); type: cell-based; settings: Homo sapiens, NCI-H460
In short: as §2

[7] = tested on: MV4-11; assay: Cellular MV4-11 viability assay (CellTiter-Glo, 72 hours); type: cell-based; settings: Homo sapiens
In short: as §2

[8] = tested on: A2780; assay: Cellular A2780 viability assay (CellTiter-Glo, 72 hours); type: cell-based; settings: Homo sapiens
Text: Human T-cell acute lymphoblastic leukemia cell line, MOLT-4 (ATCC, Cat #CRL-1582), Human multiple myeloma cell line, RPMI-8226 (Invitrogen, Cat #22400-089) and MM.1S (ATCC, Cat #CRL-2974), NSCLC (Non-small cell lung cancer) cell line H460 (ATCC, Cat #HTB-177), Human colon colorectal carcinoma cell line HCT116 (ATCC, Cat #CCL-247), Human acute monocytic leukemia cell line MV4-11 (ATCC, Cat #CRL-9591), OVCAR-3 (ATCC, Cat #HTB-161) and A2780 (ECACC, Cat #93112519) were obtained from ATCC. Cells were grown in RPMI-1640 media (Invitrogen, Cat #22400-089) supplemented with 10% FBS (Invitrogen, Cat #10099141) and 1% penicillin/streptomycin (Invitrogen, Cat #15070063) and cultured at 37° C., 5% CO2 in a humidified chamber. All cell lines were routinely tested for mycoplasma.
The effect of the CDK7 inhibitor to inhibit the growth of target cancer cells was evaluated through the 72 hours time period of viability assay. Briefly, the candidate cell line ware plated in 96 well plate at the following density of cells respectively. 1×10^4 cells/well for MOLT-4, RPMI-8226, MV4-11 and MM.1S, 5×10^3 for H460, HCT116 and OVCAR-3 and IX 10^3 for A2780. After 24 hours, the cells were treated with various concentrations of the compound (ranging from 0.0015 uM to 10 uM). DMSO solvent without compound served as a control and final DMSO concentration less than 0.1%. After 72 hours of incubation at 37° C., 5% CO2 incubator, cells were analyzed for the viability using the CellTiter-Glo Luminescent Cell Viability Assay (Promega, Cat #G7570). All viability assays were performed in duplicate and Luminescence was read using an Envision (Perkin Elmer, USA). Data was analyzed using XLfit software.

[9] = read-out: CDK1 enzymatic activity (IC50 range)
[10] = read-out: CDK2 enzymatic activity (IC50 range)
[11] = read-out: CDK5 enzymatic activity (IC50 range)
[12] = read-out: CDK7 enzymatic activity (IC50 range)
[13] = read-out: CDK1 enzymatic activity (IC50 activity range)
[14] = read-out: CDK2 enzymatic activity (IC50 activity range)
[15] = read-out: CDK5 enzymatic activity (IC50 activity range)
[16] = read-out: CDK7 enzymatic activity (IC50 activity range)

T3 sequence (Q00535 whole entry): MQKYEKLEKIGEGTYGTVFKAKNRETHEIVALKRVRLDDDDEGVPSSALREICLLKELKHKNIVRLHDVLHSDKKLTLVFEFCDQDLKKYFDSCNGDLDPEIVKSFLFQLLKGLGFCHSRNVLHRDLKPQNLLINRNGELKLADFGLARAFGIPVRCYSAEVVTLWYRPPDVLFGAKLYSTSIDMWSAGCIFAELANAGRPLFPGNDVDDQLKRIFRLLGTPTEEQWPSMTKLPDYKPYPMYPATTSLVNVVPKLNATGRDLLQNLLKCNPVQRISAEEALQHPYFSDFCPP
T3 sequence (Q15078 99-307 partner limits assumed): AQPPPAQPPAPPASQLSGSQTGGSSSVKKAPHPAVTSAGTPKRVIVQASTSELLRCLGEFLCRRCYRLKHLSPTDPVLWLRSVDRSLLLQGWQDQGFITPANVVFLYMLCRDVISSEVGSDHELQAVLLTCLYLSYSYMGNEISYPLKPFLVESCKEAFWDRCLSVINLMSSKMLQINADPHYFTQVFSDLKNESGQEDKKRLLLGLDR
T1 sequence (P06493 whole entry): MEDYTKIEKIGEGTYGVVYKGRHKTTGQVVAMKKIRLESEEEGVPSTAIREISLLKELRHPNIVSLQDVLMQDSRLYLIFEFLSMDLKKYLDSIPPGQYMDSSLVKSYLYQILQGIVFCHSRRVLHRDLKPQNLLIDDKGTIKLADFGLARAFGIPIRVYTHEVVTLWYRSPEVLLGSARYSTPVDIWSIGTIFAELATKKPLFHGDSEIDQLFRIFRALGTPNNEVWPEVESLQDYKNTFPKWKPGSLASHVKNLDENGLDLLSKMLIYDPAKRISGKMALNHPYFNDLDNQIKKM
T1 sequence (P14635 whole entry partner): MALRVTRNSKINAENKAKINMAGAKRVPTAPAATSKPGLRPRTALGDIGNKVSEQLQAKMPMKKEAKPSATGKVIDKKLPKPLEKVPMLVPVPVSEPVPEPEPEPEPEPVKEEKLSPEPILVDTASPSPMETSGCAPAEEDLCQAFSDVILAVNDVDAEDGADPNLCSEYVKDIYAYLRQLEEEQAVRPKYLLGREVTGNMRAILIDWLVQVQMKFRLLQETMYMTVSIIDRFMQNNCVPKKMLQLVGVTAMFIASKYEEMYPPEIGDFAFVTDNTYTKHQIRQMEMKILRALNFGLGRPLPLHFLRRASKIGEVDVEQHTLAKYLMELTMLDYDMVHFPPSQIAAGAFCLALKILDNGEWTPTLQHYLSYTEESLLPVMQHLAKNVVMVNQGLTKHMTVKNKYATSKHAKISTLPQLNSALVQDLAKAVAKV
T4 sequence (P50613 whole entry): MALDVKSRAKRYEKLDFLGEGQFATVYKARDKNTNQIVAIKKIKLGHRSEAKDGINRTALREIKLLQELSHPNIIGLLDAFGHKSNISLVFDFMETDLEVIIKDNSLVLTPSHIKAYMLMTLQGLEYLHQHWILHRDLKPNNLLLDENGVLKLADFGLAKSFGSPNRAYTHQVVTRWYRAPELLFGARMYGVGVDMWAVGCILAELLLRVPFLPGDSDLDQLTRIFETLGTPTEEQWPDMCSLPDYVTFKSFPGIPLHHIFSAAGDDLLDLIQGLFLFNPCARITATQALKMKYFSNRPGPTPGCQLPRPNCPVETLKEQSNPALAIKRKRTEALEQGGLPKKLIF
T4 sequence (P51946 whole entry partner): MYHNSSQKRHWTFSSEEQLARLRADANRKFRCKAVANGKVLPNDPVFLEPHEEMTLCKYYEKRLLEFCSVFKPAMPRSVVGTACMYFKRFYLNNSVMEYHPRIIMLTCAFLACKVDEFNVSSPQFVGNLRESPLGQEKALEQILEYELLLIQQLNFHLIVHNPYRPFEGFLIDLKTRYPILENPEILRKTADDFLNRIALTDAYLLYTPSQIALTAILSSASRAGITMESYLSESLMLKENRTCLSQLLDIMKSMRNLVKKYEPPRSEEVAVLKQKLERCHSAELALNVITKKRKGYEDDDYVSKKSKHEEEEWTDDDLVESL
T4 sequence (P51948 whole entry partner): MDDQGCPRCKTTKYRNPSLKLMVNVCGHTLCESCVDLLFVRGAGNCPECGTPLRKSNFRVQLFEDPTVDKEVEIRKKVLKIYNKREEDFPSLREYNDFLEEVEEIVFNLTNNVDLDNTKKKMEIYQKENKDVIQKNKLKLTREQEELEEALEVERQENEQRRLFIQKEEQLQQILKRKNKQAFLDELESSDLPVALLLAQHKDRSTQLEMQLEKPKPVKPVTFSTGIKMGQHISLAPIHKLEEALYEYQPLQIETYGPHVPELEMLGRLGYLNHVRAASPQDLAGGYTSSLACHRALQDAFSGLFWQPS

SMILES | pIC50 [1, 9] | pIC50 [2, 10] | pIC50 [3, 11] | CDK1/CDK7: Selectivity of CDK7 inhibition over CDK1 inhibition ([4]; CDK7 over CDK1) | CDK2/CDK7: Selectivity of CDK7 inhibition over CDK2 inhibition ([4]; CDK7 over CDK2) | CDK5/CDK7: Selectivity of CDK7 inhibition over CDK5 inhibition ([4]; CDK7 over CDK5) | pIC50 [4, 12] | pIC50 [5] | pIC50 [6] | pIC50 [7] | pIC50 [8] | pIC50 [1, 13] | pIC50 [2, 14] | pIC50 [3, 15] | CDK1/CDK7: Selectivity of CDK7 inhibition over CDK1 inhibition ([4]; CDK1/CDK7) | pIC50 [4, 16] | CDK2/CDK7: Selectivity of CDK7 inhibition over CDK2 inhibition ([4]; CDK2/CDK7) | CDK5/CDK7: Selectivity of CDK7 inhibition over CDK5 inhibition ([4]; CDK5/CDK7)
CC(C)c1cnn2c(NCc3c(Cl)cccc3-c3ccc4ccccc4n3)nc(N3CCCC[C@H]3CCO)nc12 [Compound 262] |  |  |  |  |  |  |  |  | < 5.00 | < 5.00 | < 5.00 | < 6.00 | < 6.00 | < 6.00 | B (B=less than 200 fold, but greater than 20 fold) | 6.00 to 7.00 | B (B=less than 200 fold, but greater than 20 fold) | B (B=less than 200 fold, but greater than 20 fold)
CC(C)c1cnn2c(NCc3ccccc3-c3ccc4ccccc4n3)nc(N3CCCC[C@H]3CO)nc12 [Compound 263] |  |  |  |  |  |  |  |  | < 5.00 | < 5.00 | < 5.00 | < 6.00 | < 6.00 | < 6.00 | B (B=less than 200 fold, but greater than 20 fold) | 6.00 to 7.00 | B (B=less than 200 fold, but greater than 20 fold) | B (B=less than 200 fold, but greater than 20 fold)
CC(C)c1cnn2c(NCc3c(Cl)cccc3-c3ccc4ccccc4n3)nc(N3CCCC[C@H]3CO)nc12 [Compound 264] |  |  |  |  |  |  |  |  | < 5.00 | < 5.00 | < 5.00 | < 6.00 | < 6.00 | < 6.00 | B (B=less than 200 fold, but greater than 20 fold) | 6.00 to 7.00 | B (B=less than 200 fold, but greater than 20 fold) | B (B=less than 200 fold, but greater than 20 fold)
CC(C)c1cnn2c(NCc3ccccc3-c3ccc4ccccc4n3)nc(NCC3CCOCC3)nc12 [Compound 267] |  |  |  |  |  |  |  |  | 5.00 to 6.00 | < 5.00 | 5.00 to 6.00 | < 6.00 | < 6.00 | < 6.00 | B (B=less than 200 fold, but greater than 20 fold) | 6.00 to 7.00 | B (B=less than 200 fold, but greater than 20 fold) | B (B=less than 200 fold, but greater than 20 fold)
CC(C)c1cnn2c(NCc3ccccc3-c3ccc4ccccc4n3)nc(O[C@H]3CC[C@@H](O)CC3)nc12 [Compound 272] |  |  |  |  |  |  |  |  | 5.00 to 6.00 | 5.00 to 6.00 | 5.00 to 6.00 | < 6.00 | < 6.00 | < 6.00 | A (A=greater than 200 fold) | > 7.00 | A (A=greater than 200 fold) | A (A=greater than 200 fold)
CC(C)c1cnn2c(NCc3ccccc3-c3ccc4ccccc4n3)nc(O[C@H]3CC[C@H](O)CC3)nc12 [Compound 273] |  |  |  |  |  |  |  |  | 5.00 to 6.00 | 5.00 to 6.00 | 5.00 to 6.00 | < 6.00 | < 6.00 | < 6.00 | A (A=greater than 200 fold) | > 7.00 | A (A=greater than 200 fold) | A (A=greater than 200 fold)
CC(C)c1cnn2c(NCc3ccccc3-n3cccn3)nc(N3CCc4ncccc4C3)nc12 [Compound 275] |  |  |  |  |  |  |  |  | 5.00 to 6.00 | 5.00 to 6.00 | 5.00 to 6.00 | < 6.00 | < 6.00 | < 6.00 | A (A=greater than 200 fold) | > 7.00 | B (B=less than 200 fold, but greater than 20 fold) | B (B=less than 200 fold, but greater than 20 fold)

Further lines, with some results ahead:

pIC50 [1, 9] | pIC50 [2, 10] | pIC50 [3, 11] | CDK1/CDK7: Selectivity of CDK7 inhibition over CDK1 inhibition ([4]; CDK7 over CDK1) | CDK2/CDK7: Selectivity of CDK7 inhibition over CDK2 inhibition ([4]; CDK7 over CDK2) | CDK5/CDK7: Selectivity of CDK7 inhibition over CDK5 inhibition ([4]; CDK7 over CDK5) | pIC50 [4, 12] | pIC50 [5] | pIC50 [6] | pIC50 [7] | pIC50 [8] | pIC50 [1, 13] | pIC50 [2, 14] | pIC50 [3, 15] | CDK1/CDK7: Selectivity of CDK7 inhibition over CDK1 inhibition ([4]; CDK1/CDK7) | pIC50 [4, 16] | SMILES | CDK2/CDK7: Selectivity of CDK7 inhibition over CDK2 inhibition ([4]; CDK2/CDK7) | CDK5/CDK7: Selectivity of CDK7 inhibition over CDK5 inhibition ([4]; CDK5/CDK7)
< 6.00 | < 6.00 | < 6.00 | A (A=greater than 200 fold) | A (A=greater than 200 fold) | A (A=greater than 200 fold) | > 7.00 | > 6.00 | > 6.00 | > 6.00 | ≥ 6.00 |  |  |  |  |  | CC(C)c1cnn2c(NCc3ccccc3-c3ccc4ccccc4n3)nc(NCCC(O)CN)nc12 (racemic) [Compound 234] |  | 
< 6.00 | < 6.00 | < 6.00 | A (A=greater than 200 fold) | A (A=greater than 200 fold) | A (A=greater than 200 fold) | > 7.00 | > 6.00 | > 6.00 | > 6.00 | ≥ 6.00 |  |  |  |  |  | Cc1cccc(-n2ccc(C(C)(C)O)n2)c1CNc1nc(N2CCC(N)CC2)nc2c(C(C)C)cnn12 [Compound 230] |  | 
< 6.00 | < 6.00 | < 6.00 | A (A=greater than 200 fold) | A (A=greater than 200 fold) | A (A=greater than 200 fold) | > 7.00 | > 6.00 | > 6.00 | > 6.00 | ≥ 6.00 |  |  |  |  |  | Cc1cccc(-c2cc(C(C)(C)O)nn2C)c1CNc1nc(N2CCC(N)CC2)nc2c(C(C)C)cnn12 [Compound 231] |  | 
 |  |  |  |  |  |  |  | > 6.00 | < 5.00 | 5.00 to 6.00 | < 6.00 | < 6.00 | < 6.00 | A (A=greater than 200 fold) | > 7.00 | CC(C)c1cnn2c(NCc3ccccc3-c3ccc4ccccc4n3)nc(N3CCOCC3)nc12 [Compound 268] | A (A=greater than 200 fold) | A (A=greater than 200 fold)
 |  |  |  |  |  |  |  | > 6.00 | 5.00 to 6.00 | ≥ 6.00 | < 6.00 | < 6.00 | < 6.00 | A (A=greater than 200 fold) | > 7.00 | CC(C)c1cnn2c(NCc3ccccc3-c3ccc4ccccc4n3)nc(OC3CCC(O)CC3)nc12 (stereo not shown) [Compound 269] | A (A=greater than 200 fold) | A (A=greater than 200 fold)
 |  |  |  |  |  |  |  | 5.00 to 6.00 | 5.00 to 6.00 | 5.00 to 6.00 | < 6.00 | < 6.00 | < 6.00 | A (A=greater than 200 fold) | > 7.00 | CC(C)c1cnn2c(NCc3ccccc3-c3ccc4ccccc4n3)nc(NC3CCC(O)CC3)nc12 (stereo not shown) [Compound 270] | A (A=greater than 200 fold) | A (A=greater than 200 fold)

From patent US11945822B2, “Pyrazolo-triazine and/or pyrazolo-pxrimidine derivatives as selective inhibitor of cyclin dependent kinase” (QURIENT CO., LTD., priority 2018, dated 2024)
